Measured values: ChEMBL document CHEMBL1201862, “PubChem BioAssay data set” (2004)
Each block holds one molecule with its values, some of them ahead of it. The source made the active and inactive calls.

How the values were obtained:
[1] = biological target: T1, Serine/threonine-protein phosphatase (Candida dubliniensis (strain CD36 / CBS 7987 / NCPF 3949 / NRRLY-17841) (Yeast), UniProt B9W6M3); assay: calcineurin pathway inhibitors in yeast reporter, dose response, S. cerevisiae, CDRE-lacZ, luminescence, secondary (AID 2388); format: functional, cell-based;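 further: yeast reporter cells carrying a calcineurin-responsive lacZ construct stimulated with calcium chloride; luminescent beta-galactosidase reporter signal in whole cells rather than isolated phosphatase activity; potency for inhibition where a drop in reporter signal means calcineurin blockade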
T1 sequence (B9W6M3 whole entry): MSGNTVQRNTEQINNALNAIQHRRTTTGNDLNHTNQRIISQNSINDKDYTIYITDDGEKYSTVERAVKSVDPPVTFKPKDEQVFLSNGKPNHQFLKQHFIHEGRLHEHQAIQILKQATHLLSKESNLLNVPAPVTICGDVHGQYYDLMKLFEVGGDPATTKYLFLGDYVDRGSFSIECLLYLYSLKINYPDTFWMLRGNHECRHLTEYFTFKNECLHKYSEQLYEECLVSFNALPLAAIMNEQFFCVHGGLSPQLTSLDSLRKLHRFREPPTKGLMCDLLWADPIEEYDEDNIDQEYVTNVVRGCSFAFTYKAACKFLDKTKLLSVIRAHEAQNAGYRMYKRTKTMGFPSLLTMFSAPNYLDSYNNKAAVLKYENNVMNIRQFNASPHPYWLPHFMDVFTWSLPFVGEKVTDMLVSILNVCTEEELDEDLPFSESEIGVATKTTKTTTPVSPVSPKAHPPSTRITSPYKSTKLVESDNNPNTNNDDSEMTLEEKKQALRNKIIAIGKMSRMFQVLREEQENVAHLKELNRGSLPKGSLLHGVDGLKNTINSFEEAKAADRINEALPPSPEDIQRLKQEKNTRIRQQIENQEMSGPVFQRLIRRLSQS

[2] = inhibitors of intracellular T. cruzi replication, confirmation, NIH3T3 host cells, beta-gal luminescence (AID 2044); format: functional, cell-based;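 further: intracellular parasites grown in NIH/3T3 mouse fibroblasts as host cells; luminescent beta-galactosidase reporter signal from transgenic T. cruzi replicating inside host cells; inhibitors lower the luminescence signal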
cells = format: functional, cell-based
[3] = HEK293T cell cytotoxicity, dose response, cytotoxicity control, CellTiter-Glo luminescence, dry powder, set 2 (AID 720595); format: functional, cell-based; conditions: HEK293
Genome polyprotein = Genome polyprotein (dengue virus type 2, UniProt P29990); assay: Dengue-2 NS5 methyltransferase inhibitors, primary screen, biochemical, confirmation dose response (AID 588689); format: functional
[4] = biological target: Cyclin-dependent kinase 9 (Homo sapiens, UniProt P50750); format: functional;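 further: value from the CDK9 entry of a kinome-spanning kinase panel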
[5] = biological target: Serine/threonine-protein kinase Nek2 (Homo sapiens, UniProt P51955); format: functional
CAAX prenyl protease 1 = biological target: T2, CAAX prenyl protease 1 (Saccharomyces cerevisiae S288c, UniProt P47154); assay: Ste24 protease inhibitors, dose response, biochemical, S. cerevisiae, plate reader, cherry-pick (AID 488815)
T2 sequence (P47154 whole entry): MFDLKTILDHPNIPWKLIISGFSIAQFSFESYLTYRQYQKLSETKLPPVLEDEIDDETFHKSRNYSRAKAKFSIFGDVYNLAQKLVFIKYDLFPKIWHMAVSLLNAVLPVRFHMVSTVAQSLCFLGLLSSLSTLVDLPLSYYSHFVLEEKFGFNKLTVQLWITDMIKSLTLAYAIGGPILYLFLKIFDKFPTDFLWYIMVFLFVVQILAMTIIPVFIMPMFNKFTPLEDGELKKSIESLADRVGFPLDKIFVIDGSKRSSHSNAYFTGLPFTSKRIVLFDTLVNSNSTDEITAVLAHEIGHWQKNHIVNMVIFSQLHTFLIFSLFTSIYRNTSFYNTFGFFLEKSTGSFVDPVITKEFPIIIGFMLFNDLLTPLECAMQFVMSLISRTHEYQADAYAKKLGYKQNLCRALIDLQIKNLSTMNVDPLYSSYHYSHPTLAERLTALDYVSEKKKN

[6] = Shn3 3'UTR reporter inhibitors, dose response, cell-based, Clone20 osteoblasts, firefly luciferase, cherry-picked (AID 624132); format: functional;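 further: firefly luciferase luminescence from reporter carrying the Shn3 3'UTR in osteoblasts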
BJ [7] = assay: cytotoxicity toward BJ-TERT-LT-ST fibroblasts, dose response, cell-based, RAS-independent, luminescence (AID 1935); format: functional; conditions: Homo sapiens;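 further: BJ fibroblasts immortalized with TERT plus LT and ST oncogenes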
CAAX prenyl protease 2 [8] = biological target: CAAX prenyl protease 2 (Saccharomyces cerevisiae S288c, UniProt Q03530); format: biochemical
BJ [9] = assay: cytotoxicity toward BJ-TERT fibroblasts, dose response, cell-based, RAS-independent, luminescence (AID 1933); format: functional; conditions: Homo sapiens
CAAX prenyl protease 2 [10] = biological target: T3, CAAX prenyl protease 2 (Homo sapiens, UniProt Q9Y256); assay: human Rce1 protease inhibitors, dose response, biochemical, yeast membranes, quenched-peptide fluorescence, cherry-pick (AID 588849)
T3 sequence (Q9Y256 whole entry): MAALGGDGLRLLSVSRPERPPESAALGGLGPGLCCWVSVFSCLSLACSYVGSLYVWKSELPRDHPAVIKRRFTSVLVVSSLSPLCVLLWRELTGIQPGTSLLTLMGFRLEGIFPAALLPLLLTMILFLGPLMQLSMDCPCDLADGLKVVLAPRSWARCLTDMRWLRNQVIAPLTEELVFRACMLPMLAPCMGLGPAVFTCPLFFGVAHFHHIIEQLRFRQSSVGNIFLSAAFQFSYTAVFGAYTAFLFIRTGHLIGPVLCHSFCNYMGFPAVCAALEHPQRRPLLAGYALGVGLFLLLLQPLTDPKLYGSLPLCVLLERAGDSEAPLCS

[11] = biological target: Ribosomal protein S6 kinase alpha-3 (Homo sapiens, UniProt P51812); format: functional;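 further: measured within a kinome-wide profiling panel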
[12] = biological target: Rho-associated protein kinase 2 (Homo sapiens, UniProt O75116); format: functional
[13] = biological target: Cyclin-dependent kinase 2 (Homo sapiens, UniProt P24941); format: functional;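 further: CDK2 measured as one member of a broad kinome profiling panel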
[14] = biological target: Serine/threonine-protein kinase 17A (Homo sapiens, UniProt Q9UEE5); format: functional
[15] = biological target: T4, DNA repair protein RAD52 homolog (Homo sapiens, UniProt P43351); format: functional, biochemical
T4 sequence (P43351 whole entry): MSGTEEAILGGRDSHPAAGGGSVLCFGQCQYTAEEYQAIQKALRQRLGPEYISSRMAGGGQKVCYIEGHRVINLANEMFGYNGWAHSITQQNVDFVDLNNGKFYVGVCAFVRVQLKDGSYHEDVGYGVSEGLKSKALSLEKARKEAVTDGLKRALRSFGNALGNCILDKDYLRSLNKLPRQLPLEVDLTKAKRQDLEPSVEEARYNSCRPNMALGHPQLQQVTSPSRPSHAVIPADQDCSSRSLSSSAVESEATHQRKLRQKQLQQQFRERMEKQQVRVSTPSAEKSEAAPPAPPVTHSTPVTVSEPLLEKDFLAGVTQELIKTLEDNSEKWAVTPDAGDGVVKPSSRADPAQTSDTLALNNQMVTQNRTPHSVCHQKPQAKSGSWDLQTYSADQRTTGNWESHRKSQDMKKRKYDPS

Chain of Ribosomal protein S6 kinase alpha-3 (P51812 whole entry): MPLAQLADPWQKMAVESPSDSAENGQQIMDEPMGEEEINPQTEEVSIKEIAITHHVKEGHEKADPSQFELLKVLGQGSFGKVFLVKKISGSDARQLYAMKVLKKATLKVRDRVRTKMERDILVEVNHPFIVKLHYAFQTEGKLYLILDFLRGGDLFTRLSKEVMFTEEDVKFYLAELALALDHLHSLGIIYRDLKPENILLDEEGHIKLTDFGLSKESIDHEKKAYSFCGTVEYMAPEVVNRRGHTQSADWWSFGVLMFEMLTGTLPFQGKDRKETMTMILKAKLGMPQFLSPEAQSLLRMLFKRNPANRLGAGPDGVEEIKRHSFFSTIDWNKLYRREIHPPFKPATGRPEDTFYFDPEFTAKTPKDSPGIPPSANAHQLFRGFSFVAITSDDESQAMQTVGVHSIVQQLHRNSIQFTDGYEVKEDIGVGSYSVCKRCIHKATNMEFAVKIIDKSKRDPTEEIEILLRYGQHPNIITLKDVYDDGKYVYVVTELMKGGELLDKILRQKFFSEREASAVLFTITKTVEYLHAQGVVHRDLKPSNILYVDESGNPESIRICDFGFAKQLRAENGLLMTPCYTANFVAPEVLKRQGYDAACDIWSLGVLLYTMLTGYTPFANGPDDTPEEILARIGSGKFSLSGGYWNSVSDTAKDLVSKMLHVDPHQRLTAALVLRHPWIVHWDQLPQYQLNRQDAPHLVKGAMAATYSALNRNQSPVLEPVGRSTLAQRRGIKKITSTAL
Chain of Serine/threonine-protein kinase 17A (Q9UEE5 whole entry): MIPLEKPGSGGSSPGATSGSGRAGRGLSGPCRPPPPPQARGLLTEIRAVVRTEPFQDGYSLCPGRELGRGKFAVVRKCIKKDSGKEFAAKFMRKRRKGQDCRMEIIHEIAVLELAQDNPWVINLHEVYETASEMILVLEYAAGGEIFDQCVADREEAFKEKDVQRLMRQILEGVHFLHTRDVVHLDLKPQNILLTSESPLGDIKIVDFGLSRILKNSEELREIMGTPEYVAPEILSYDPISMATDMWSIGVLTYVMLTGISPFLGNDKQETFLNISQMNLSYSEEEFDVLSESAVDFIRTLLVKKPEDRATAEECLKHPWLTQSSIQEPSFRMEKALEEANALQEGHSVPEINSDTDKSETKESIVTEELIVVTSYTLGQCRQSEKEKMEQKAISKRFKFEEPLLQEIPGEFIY
Chain of Rho-associated protein kinase 2 (O75116 whole entry): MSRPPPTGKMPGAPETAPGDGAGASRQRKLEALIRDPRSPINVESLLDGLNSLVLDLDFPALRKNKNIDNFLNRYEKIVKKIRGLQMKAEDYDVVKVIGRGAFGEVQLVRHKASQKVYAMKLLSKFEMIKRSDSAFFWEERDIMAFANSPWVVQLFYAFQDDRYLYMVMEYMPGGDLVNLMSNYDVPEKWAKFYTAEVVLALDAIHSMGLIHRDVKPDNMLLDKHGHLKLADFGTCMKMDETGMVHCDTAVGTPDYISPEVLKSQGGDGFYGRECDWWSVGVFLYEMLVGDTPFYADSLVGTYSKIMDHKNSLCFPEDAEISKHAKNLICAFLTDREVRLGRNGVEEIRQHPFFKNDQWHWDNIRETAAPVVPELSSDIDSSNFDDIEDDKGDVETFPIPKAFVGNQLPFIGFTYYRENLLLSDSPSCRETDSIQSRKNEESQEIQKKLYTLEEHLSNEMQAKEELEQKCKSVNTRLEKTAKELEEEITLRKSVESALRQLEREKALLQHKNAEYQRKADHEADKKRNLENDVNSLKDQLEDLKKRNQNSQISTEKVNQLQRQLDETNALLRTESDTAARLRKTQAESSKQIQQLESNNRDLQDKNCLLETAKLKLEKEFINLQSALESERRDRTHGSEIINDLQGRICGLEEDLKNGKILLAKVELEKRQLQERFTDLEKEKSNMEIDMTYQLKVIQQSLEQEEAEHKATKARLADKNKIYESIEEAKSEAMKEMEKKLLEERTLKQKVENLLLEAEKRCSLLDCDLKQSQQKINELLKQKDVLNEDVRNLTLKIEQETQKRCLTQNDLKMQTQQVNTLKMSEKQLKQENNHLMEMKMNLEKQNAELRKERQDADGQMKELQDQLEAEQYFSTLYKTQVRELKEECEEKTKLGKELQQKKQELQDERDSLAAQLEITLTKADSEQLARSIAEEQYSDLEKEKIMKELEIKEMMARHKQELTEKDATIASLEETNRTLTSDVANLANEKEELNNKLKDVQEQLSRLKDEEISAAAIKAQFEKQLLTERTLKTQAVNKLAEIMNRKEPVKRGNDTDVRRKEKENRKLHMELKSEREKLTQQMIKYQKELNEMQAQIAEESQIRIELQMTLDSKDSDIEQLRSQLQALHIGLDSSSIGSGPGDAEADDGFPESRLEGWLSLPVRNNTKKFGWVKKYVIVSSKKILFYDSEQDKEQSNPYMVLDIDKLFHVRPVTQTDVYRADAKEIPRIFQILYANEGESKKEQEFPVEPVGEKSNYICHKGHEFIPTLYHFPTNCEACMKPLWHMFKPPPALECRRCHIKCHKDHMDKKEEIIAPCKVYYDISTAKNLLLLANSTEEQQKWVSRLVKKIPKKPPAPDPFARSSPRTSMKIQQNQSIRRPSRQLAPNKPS
Chain of Genome polyprotein (P29990 2492-3391 limits assumed): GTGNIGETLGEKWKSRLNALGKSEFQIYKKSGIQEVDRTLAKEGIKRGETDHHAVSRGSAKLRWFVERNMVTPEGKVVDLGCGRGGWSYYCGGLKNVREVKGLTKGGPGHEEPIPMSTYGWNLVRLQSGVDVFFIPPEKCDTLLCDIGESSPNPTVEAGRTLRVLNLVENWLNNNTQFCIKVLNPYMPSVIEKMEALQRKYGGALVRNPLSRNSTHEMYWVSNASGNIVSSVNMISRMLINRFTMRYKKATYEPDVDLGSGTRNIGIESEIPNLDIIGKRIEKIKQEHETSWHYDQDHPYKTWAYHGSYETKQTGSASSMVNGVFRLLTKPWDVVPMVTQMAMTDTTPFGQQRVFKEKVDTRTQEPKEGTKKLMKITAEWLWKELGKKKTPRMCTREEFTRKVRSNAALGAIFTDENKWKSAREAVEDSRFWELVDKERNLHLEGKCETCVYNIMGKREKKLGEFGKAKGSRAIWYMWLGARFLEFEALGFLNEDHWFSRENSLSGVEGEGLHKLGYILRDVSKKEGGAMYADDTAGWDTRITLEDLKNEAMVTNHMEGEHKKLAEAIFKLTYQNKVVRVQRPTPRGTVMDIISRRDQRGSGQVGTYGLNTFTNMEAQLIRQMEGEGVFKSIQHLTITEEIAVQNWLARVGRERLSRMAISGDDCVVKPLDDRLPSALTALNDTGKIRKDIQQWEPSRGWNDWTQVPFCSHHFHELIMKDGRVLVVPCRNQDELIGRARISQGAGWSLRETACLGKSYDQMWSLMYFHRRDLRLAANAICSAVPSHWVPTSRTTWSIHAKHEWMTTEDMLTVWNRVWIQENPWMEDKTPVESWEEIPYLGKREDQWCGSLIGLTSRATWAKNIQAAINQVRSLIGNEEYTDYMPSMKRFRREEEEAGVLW
Chain of Serine/threonine-protein kinase Nek2 (P51955 whole entry): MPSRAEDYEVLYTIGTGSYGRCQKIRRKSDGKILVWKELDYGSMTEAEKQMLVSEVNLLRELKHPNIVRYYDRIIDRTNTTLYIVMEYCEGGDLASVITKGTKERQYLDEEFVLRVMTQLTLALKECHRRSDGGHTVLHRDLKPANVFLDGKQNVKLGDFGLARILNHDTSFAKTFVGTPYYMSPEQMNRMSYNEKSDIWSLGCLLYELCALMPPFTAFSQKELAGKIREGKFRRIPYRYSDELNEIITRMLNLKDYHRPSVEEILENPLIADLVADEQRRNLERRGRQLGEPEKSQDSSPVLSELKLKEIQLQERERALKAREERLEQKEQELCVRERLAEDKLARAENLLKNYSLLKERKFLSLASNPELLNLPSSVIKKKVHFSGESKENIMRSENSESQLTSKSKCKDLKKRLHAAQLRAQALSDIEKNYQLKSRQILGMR
Chain of CAAX prenyl protease 2 (Saccharomyces cerevisiae S288c, UniProt Q03530) (Q03530 whole entry): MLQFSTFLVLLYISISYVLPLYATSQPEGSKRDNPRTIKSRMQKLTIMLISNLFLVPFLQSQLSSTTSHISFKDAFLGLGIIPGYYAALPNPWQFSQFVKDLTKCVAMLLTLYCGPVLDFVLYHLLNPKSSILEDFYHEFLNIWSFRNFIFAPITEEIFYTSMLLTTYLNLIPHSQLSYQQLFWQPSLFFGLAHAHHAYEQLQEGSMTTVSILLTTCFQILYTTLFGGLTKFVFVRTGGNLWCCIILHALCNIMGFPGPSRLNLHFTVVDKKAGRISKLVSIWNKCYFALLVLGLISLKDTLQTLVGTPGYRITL
Chain of Cyclin-dependent kinase 9 (P50750 whole entry): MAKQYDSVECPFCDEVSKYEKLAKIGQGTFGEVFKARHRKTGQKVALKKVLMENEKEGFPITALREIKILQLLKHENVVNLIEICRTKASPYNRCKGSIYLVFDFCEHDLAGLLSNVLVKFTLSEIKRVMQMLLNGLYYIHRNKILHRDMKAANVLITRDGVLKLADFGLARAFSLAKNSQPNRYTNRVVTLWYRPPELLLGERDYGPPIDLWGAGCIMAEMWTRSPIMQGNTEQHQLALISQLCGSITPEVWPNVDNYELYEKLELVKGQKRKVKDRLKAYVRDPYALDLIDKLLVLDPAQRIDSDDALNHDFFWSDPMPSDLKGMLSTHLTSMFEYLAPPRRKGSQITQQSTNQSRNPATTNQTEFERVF

Compound: CC(C)CC(=O)NC(c1cccs1)c1ccc2cccnc2c1O (configuration not stated)
EC50 [1]: > 180 µM (inactive)
EC50 [2]: 0.489 µM (active)
EC50 (cells): > 350 µM (not active)
AC50 [3]: 1.75 µM (active)

Compound: CCOC(=O)c1ccc(NC2=CC(=O)C(=O)c3ccccc32)cc1
IC50 (Genome polyprotein): > 100 µM (active)

Ki [4]: > 1.58 µM (inactive)
Ki [5]: > 3.16 µM (inactive)
Compound: O=C(O)C1CN(Cc2ccc(OCc3ccccc3)cc2Cl)C1

Compound: OC(CNCCC1C=Nc2ccccc21)Cn1c2ccc(Cl)cc2c2cc(Cl)ccc21 (configuration not stated)
AC50 (CAAX prenyl protease 1): 4.42 µM (active)
AC50 [6]: 5.11 µM (active)
EC50 (BJ [7]): 5.42 µM (inconclusive)
AC50 (CAAX prenyl protease 2 [8]): 8.21 µM (active)
EC50 (BJ [9]): 5.3 µM (inconclusive)
AC50 (CAAX prenyl protease 2 [10]): 79.3 µM (active)

Ki [11]: 0.0126 µM (active)
pKi [11]: 7.9
Ki [12]: 0.002 µM (active)
pKi [12]: 8.7
Ki [13]: 0.0316 µM (active)
pKi [13]: 7.5
Ki [14]: 0.0316 µM (active)
pKi [14]: 7.5
Compound: NC1CCC(Nc2nc(Cl)cc(-c3c[nH]c4ncccc34)n2)CC1 (configuration not stated)

Compound: CCCCCCCCCCCCCCCC[N+](C)(C)C
AC50 [15]: 8.73 µM (active)
